Test results reported in publication PMC10934098, “Platinum(0)-η^2-1,2-(E)ditosylethene Complexes Bearing Phosphine, Isocyanide and N-Heterocyclic Carbene Ligands: Synthesis and Cytotoxicity towards Ovarian and Breast Cancer Cells” (Molecules, 2024).

What was measured:
[1] = Solubility in DMSO and DMSO/H2O solutions; type: physicochemical
Excerpt: Therefore, these three platinum derivatives were consequently excluded from biological analyses.

[2] = tested on: MDA-MB-231 (triple-negative breast cancer cells); experiment: Antiproliferative activity (CellTiter-Glo cytotoxicity assay) on MDA-MB-231; type: cell-based, human; conditions: 96 h of incubation; MDA-MB-231 cells; stock solutions in DMSO (cisplatin in H2O/NaCl)
Description: (§1) With the aim of exploring the potential anticancer effects of platinum(0)-η^2-1,2-(E)ditosylethene complexes, we exposed a set of three distinct human tumor cell lines (ovarian cancer A2780 and its cisplatin-resistant clone A2780cis, and triple-negative breast cancer MDA-MB-231) to the synthesized compounds and cisplatin (positive control) for a duration of 96 h.
(§2) Two types of ovarian cancer cell lines (A2780 and A2780cis), one breast cancer cell line (MDA-MB-231) and a normal cell line (MRC-5) were cultured following the supplier’s guidelines (Sigma-Aldrich, St. Louis, MO, USA) and maintained at 37 °C in a humidified atmosphere containing 5% CO2. In 96-well plates, 1∙10^3 cancer cells and 8∙10^3 MRC-5 cells were seeded and treated after 24 h with six different concentrations of Pt(0) complexes (0.001, 0.01, 0.1, 1, 10, 100 µM). Stock solutions (10 mM) of all platinum complexes were prepared using DMSO as a solvent. After 96 h of treatment, cell viability was assessed using a CellTiter-Glo assay (Promega, Madison, WI, USA) with Tecan M1000 or SynergyH1 microplate readers (Mennedorf, Switzerland). IC50 values were determined from logistical dose–response curves using GraphPad Prism 8 software. Triplicate measurements were taken to calculate averages, and standard deviations were represented by error bars.

[3] = tested on: A2780 (cisplatin-sensitive ovarian cancer cells); experiment: Antiproliferative activity (CellTiter-Glo cytotoxicity assay) on A2780; type: cell-based, human; conditions: 96 h of incubation, stock solutions in DMSO (cisplatin in H2O/NaCl)
Description: as §1, §2

[4] = tested on: MRC-5 (normal lung fibroblasts); experiment: Antiproliferative activity (CellTiter-Glo cytotoxicity assay) on MRC-5 normal cells; type: cell-based, human; conditions: 96 h of incubation, stock solutions in DMSO (cisplatin in H2O/NaCl)
Description: as §1, §2

[5] = tested on: A2780cis (cisplatin-resistant ovarian cancer cells); experiment: Antiproliferative activity (CellTiter-Glo cytotoxicity assay) on A2780cis; type: cell-based, human; conditions: 96 h of incubation, stock solutions in DMSO (cisplatin in H2O/NaCl)
Description: as §1, §2

Solubility [1]	Compound	IC50 [2] [µM]	IC50 [3] [µM]	IC50 [4] [µM]	IC50 [5] [µM]
low solubility	[(PPh3)(CyIC)Pt(η^2-(E)-1,2-ditosylethene)] [Compound 4g]	–	–	–	–
–	[(P(p-F-Ph)3)2Pt(η^2-(E)-1,2-ditosylethene)] [Compound 2b]	36 ± 6	> 100	> 100	> 100
–	[(TosMIC)2Pt(η^2-(E)-1,2-ditosylethene)] [Compound 3b]	5.52 ± 0.03	5.4 ± 0.7	22 ± 6	11 ± 6
–	[(TIC)2Pt(η^2-(E)-1,2-ditosylethene)] [Compound 3c]	3.4 ± 0.4	2.6 ± 0.3	3.5 ± 0.1	3.1 ± 0.9
–	[(PPh3)(TosMIC)Pt(η^2-(E)-1,2-ditosylethene)] [Compound 4c]	1 ± 0.8	55 ± 17	15 ± 3	> 100
–	[(CH3ImCH2Ph)2Pt(η^2-(E)-1,2-ditosylethene)] [Compound 6b]	5.4 ± 0.9	1.9 ± 0.3	61 ± 13	12.91 ± 0.06
–	[(P(p-F-Ph)3)(DIC)Pt(η^2-(E)-1,2-ditosylethene)] [Compound 4b]	30 ± 13	85 ± 23	> 100	> 100
–	[(CyIC)2Pt(η^2-(E)-1,2-ditosylethene)] [Compound 3d]	1.2 ± 0.3	1.18 ± 0.09	–	1.4 ± 0.2
–	[(P(p-F-Ph)3)(TosMIC)Pt(η^2-(E)-1,2-ditosylethene)] [Compound 4d]	0.4 ± 0.1	> 100	14 ± 1	> 100
–	N.N.[Cl][Pt][Cl] [Cisplatin, reference compound]	6.4 ± 0.5	0.19 ± 0.08	2.9 ± 0.1	5.4 ± 0.1
–	[(PPh3)(DIC)Pt(η^2-(E)-1,2-ditosylethene)] [Compound 4a]	1.8 ± 0.6	35 ± 3	59 ± 8	> 100
–	[(TolCH2ImCH2Tol)2Pt(η^2-(E)-1,2-ditosylethene)] [Compound 6a]	36 ± 11	1.6 ± 0.1	> 100	10 ± 3
–	[(P(2-furyl)3)2Pt(η^2-(E)-1,2-ditosylethene)] [Compound 2c]	> 100	17.2 ± 0.8	> 100	> 100
–	[(PPh3)2Pt(η^2-(E)-1,2-ditosylethene)] [Compound 2a]	2.6 ± 0.4	5.5 ± 0.6	> 100	> 100
–	[(P(p-F-Ph)3)(TIC)Pt(η^2-(E)-1,2-ditosylethene)] [Compound 4f]	21 ± 2	> 100	> 100	> 100
low solubility	[(DIC)2Pt(η^2-(E)-1,2-ditosylethene)] [Compound 3a]	–	–	–	–
–	[(P(p-F-Ph)3)(CyIC)Pt(η^2-(E)-1,2-ditosylethene)] [Compound 4h]	37 ± 13	41 ± 10	> 100	> 100

Compound	Solubility [1]	IC50 [2] [µM]	IC50 [3] [µM]	IC50 [4] [µM]	IC50 [5] [µM]
[(PPh3)(TIC)Pt(η^2-(E)-1,2-ditosylethene)] [Compound 4e]	low solubility	–	–	–	–
